# Reference: patent US11058680B2, “Combinations of opioid/TLR4 antagonists and acetaminophen for use in the treatment of emotional pain and insomnia” (Allodynic Threapeutics, LLC, priority 2016, dated 2021)
# Several values for one entry are separate records, joined by “and”; a condition that tells them apart may be missing. Equal values may be shown once.
# Test system: migraine attacks
# Experiment: Naltrexone/acetaminophen open-label pilot study, acute treatment of migraine: headache pain (4-point scale; relief score ≤1, pain-free score = 0), associated symptoms, additional meds
# Format: in vivo, human
# Procedure: Sixteen unique patients were enrolled in an open phase pilot study for the acute treatment of migraine attacks, insomnia, and emotional pain. Of the sixteen patients, eleven were evaluated for one migraine attack, one for two attacks, two for four attacks, one for six attacks, and one for fourteen attacks. A total of forty-one […] treatments were evaluated. Patients received a single dose of one of the following treatment options:
# The majority of the patients remained in the clinic for observation for 2 hours after dosing. They completed headache diary assessments immediately before and after dosing at time points: 7, 15, and 30 minutes; and 1, 1.5, 2, 3, 6, 12, 24, and 48 hours. Headache pain was assessed on a 4-point scale (0=none; 1=mild; 2=moderate; 3=severe). The assessment of photophobia, phonophobia, nausea, and neck/shoulder pain was assessed as present or absent. The assessment of emotional pain was recorded on a 4-point scale (0=none, 1=mild, 2=moderate, 3=severe). The assessment of difficulty sleeping or falling asleep (insomnia) was assessed on a 4-point scale (0=none, 1=mild, 2=moderate, 3=severe) at baseline, for the night before treatment and for the following nights at 24, and 48 hours. Patients recorded side effects severity at each time point. Patients recorded the time of the first rescue medication dose and all additional headache medications used within 48 hours. Patients were required to stay awake to record their assessments in the first 2 hours, sleeping was permitted thereafter. While asleep, assessments were completed according to patients' best estimation. For data analysis, it was assumed that a migraine attack is a unique patient. Patients were asked to specify (yes or no answer) to whether they experienced emotional pain symptoms such as: hurt feelings, sadness, fear, or anger. Patients who replied positively to having emotional pain were asked to specify the cause into one of the following options: relationship, work/school, money/debt, health, or loss/grief.
# [1] = 12 h, NTX/APAP 2.25 mg/325 mg, NTX 2.25 mg
# [2] = 12 h, NTX/APAP 3.25 mg/325 mg, NTX 3.25 mg
# [3] = 12 h, NTX/APAP 5 mg/325 mg, NTX 5 mg
# [4] = 12 h, NTX/APAP […]325 mg, NTX 1.5 mg
# [5] = 12 h, naltrexone/acetaminophen 2.25 mg/325 mg (N=21), naltrexone 2.25 mg (N=9)
# [6] = 24 h, NTX/APAP 2.25 mg/325 mg, NTX 2.25 mg
# [7] = 24 h, NTX/APAP 3.25 mg/325 mg, NTX 3.25 mg
# [8] = 24 h, NTX/APAP 5 mg/325 mg, NTX 5 mg
# [9] = 24 h, NTX/APAP […]325 mg, NTX 1.5 mg
# [10] = 24 h, naltrexone/acetaminophen 2.25 mg/325 mg (N=21), naltrexone 2.25 mg (N=9)
# [11] = 48 h, NTX/APAP 2.25 mg/325 mg, NTX 2.25 mg
# [12] = 48 h, NTX/APAP 3.25 mg/325 mg, NTX 3.25 mg
# [13] = 48 h, NTX/APAP 5 mg/325 mg, NTX 5 mg
# [14] = 48 h, NTX/APAP […]325 mg, NTX 1.5 mg
# [15] = 48 h, naltrexone/acetaminophen 2.25 mg/325 mg (N=21), naltrexone 2.25 mg (N=9)
structure (smiles),measurement,setting,value
O=C1CC[C@@]2(O)[C@H]3Cc4ccc(O)c5c4[C@@]2(CCN3CC2CC2)[C@H]1O5 [naltrexone],Nausea-free,[1],9 (100) n (%)
same,Neck/shoulder pain-free,[1],9 (100) n (%)
same,Phonophobia-free,[1],9 (100) n (%)
same,Photophobia-free,[1],8 (88) n (%)
same,Additional meds taken,[2],0
same,Headache pain-free,[2],3 (100) n (%)
same,Headache pain-relief,[2],3 (100) n (%)
same,Most bothersome symptom-free,[2],3 (100) n (%)
same,Nausea-free,[2],3 (100) n (%)
same,Neck/shoulder pain-free,[2],3 (100) n (%)
same,Phonophobia-free,[2],3 (100) n (%)
same,Photophobia-free,[2],3 (100) n (%)
same,Additional meds taken,[3],0
same,Headache pain-free,[3],1 (100) n (%)
same,Headache pain-relief,[3],1 (100) n (%)
same,Most bothersome symptom-free,[3],1 (100) n (%)
same,Nausea-free,[3],1 (100) n (%)
same,Neck/shoulder pain-free,[3],1 (100) n (%)
same,Phonophobia-free,[3],1 (100) n (%)
same,Photophobia-free,[3],1 (100) n (%)
same,Additional meds taken,[4],0
same,Headache pain-free,[4],3 (100) n (%)
same,Headache pain-relief,[4],3 (100) n (%)
same,Most bothersome symptom-free,[4],3 (100) n (%)
same,Nausea-free,[4],3 (100) n (%)
same,Neck/shoulder pain-free,[4],3 (100) n (%)
same,Phonophobia-free,[4],3 (100) n (%)
same,Photophobia-free,[4],3 (100) n (%)
same,Additional meds taken,"12 h, combined doses",0
same,Headache pain-free,"12 h, combined doses",14 (88) n (%)
same,Headache pain-relief,"12 h, combined doses",16 (100) n (%)
same,Most bothersome symptom-free,"12 h, combined doses",16 (100) n (%)
same,Nausea-free,"12 h, combined doses",16 (100) n (%)
same,Neck/shoulder pain-free,"12 h, combined doses",16 (100) n (%)
same,Phonophobia-free,"12 h, combined doses",16 (100) n (%)
same,Photophobia-free,"12 h, combined doses",15 (94) n (%)
same,Headache pain-free,"12 h, naltrexone 1.5 mg (N=3)",100%
same,Headache pain-free,[5],77% and 100%
same,Headache pain-relief,[5],100%
same,Most bothersome symptom-free,[5],100%
same,Headache pain-free,"12 h, naltrexone/acetaminophen 3.25 mg/325 mg (N=3), naltrexone 3.25 mg (N=3)",100%
same,Additional meds taken,[6],0
same,Headache pain-free,[6],8 (88) n (%)
same,Headache pain-relief,[6],9 (100) n (%)
same,Most bothersome symptom-free,[6],9 (100) n (%)
same,Nausea-free,[6],9 (100) n (%)
same,Neck/shoulder pain-free,[6],9 (100) n (%)
same,Phonophobia-free,[6],9 (100) n (%)
same,Photophobia-free,[6],9 (100) n (%)
same,Additional meds taken,[7],0
same,Headache pain-free,[7],3 (100) n (%)
same,Headache pain-relief,[7],3 (100) n (%)
same,Most bothersome symptom-free,[7],3 (100) n (%)
same,Nausea-free,[7],3 (100) n (%)
same,Neck/shoulder pain-free,[7],3 (100) n (%)
same,Phonophobia-free,[7],3 (100) n (%)
same,Photophobia-free,[7],3 (100) n (%)
same,Additional meds taken,[8],0
same,Headache pain-free,[8],1 (100) n (%)
same,Headache pain-relief,[8],1 (100) n (%)
same,Most bothersome symptom-free,[8],1 (100) n (%)
same,Nausea-free,[8],1 (100) n (%)
same,Neck/shoulder pain-free,[8],1 (100) n (%)
same,Phonophobia-free,[8],1 (100) n (%)
same,Photophobia-free,[8],1 (100) n (%)
same,Additional meds taken,[9],0
same,Headache pain-free,[9],3 (100) n (%)
same,Headache pain-relief,[9],3 (100) n (%)
same,Most bothersome symptom-free,[9],3 (100) n (%)
same,Nausea-free,[9],3 (100) n (%)
same,Neck/shoulder pain-free,[9],3 (100) n (%)
same,Phonophobia-free,[9],3 (100) n (%)
same,Photophobia-free,[9],3 (100) n (%)
same,Additional meds taken,"24 h, combined doses",0
same,Headache pain-free,"24 h, combined doses",15 (94) n (%)
same,Headache pain-relief,"24 h, combined doses",16 (100) n (%)
same,Most bothersome symptom-free,"24 h, combined doses",16 (100) n (%)
same,Nausea-free,"24 h, combined doses",16 (100) n (%)
same,Neck/shoulder pain-free,"24 h, combined doses",16 (100) n (%)
same,Phonophobia-free,"24 h, combined doses",16 (100) n (%)
same,Photophobia-free,"24 h, combined doses",16 (100) n (%)
same,Headache pain-free,"24 h, naltrexone 1.5 mg (N=3)",100%
same,Headache pain-free,[10],88% and 100%
same,Headache pain-relief,[10],100%
same,Most bothersome symptom-free,[10],100%
same,Headache pain-free,"24 h, naltrexone/acetaminophen 3.25 mg/325 mg (N=3), naltrexone 3.25 mg (N=3)",100%
same,Additional meds taken,[11],0 (0)
same,Headache pain-free,[11],9 (100) n (%)
same,Headache pain-relief,[11],9 (100) n (%)
same,Most bothersome symptom-free,[11],9 (100) n (%)
same,Nausea-free,[11],9 (100) n (%)
same,Neck/shoulder pain-free,[11],9 (100) n (%)
same,Phonophobia-free,[11],9 (100) n (%)
same,Photophobia-free,[11],9 (100) n (%)
same,Additional meds taken,[12],0
same,Headache pain-free,[12],3 (100) n (%)
same,Headache pain-relief,[12],3 (100) n (%)
same,Most bothersome symptom-free,[12],3 (100) n (%)
same,Nausea-free,[12],3 (100) n (%)
same,Neck/shoulder pain-free,[12],3 (100) n (%)
same,Phonophobia-free,[12],3 (100) n (%)
same,Photophobia-free,[12],3 (100) n (%)
same,Additional meds taken,[13],1
same,Headache pain-free,[13],1 (100) n (%)
same,Headache pain-relief,[13],1 (100) n (%)
same,Most bothersome symptom-free,[13],1 (100) n (%)
same,Nausea-free,[13],1 (100) n (%)
same,Neck/shoulder pain-free,[13],1 (100) n (%)
same,Phonophobia-free,[13],1 (100) n (%)
same,Photophobia-free,[13],1 (100) n (%)
same,Additional meds taken,[14],0
same,Headache pain-free,[14],2 (66) n (%)
same,Headache pain-relief,[14],2 (66) n (%)
same,Most bothersome symptom-free,[14],2 (66) n (%)
same,Nausea-free,[14],2 (66) n (%)
same,Neck/shoulder pain-free,[14],3 (100) n (%)
same,Phonophobia-free,[14],3 (100) n (%)
same,Photophobia-free,[14],2 (66) n (%)
same,Additional meds taken,"48 h, combined doses",1
same,Headache pain-free,"48 h, combined doses",15 (94) n (%)
same,Headache pain-relief,"48 h, combined doses",15 (94) n (%)
same,Most bothersome symptom-free,"48 h, combined doses",15 (94) n (%)
same,Nausea-free,"48 h, combined doses",15 (94) n (%)
same,Neck/shoulder pain-free,"48 h, combined doses",16 (100) n (%)
same,Phonophobia-free,"48 h, combined doses",16 (100) n (%)
same,Photophobia-free,"48 h, combined doses",15 (94) n (%)
same,Headache pain-free,"48 h, naltrexone 1.5 mg (N=3)",100%
same,Headache pain-free,[15],100%
same,Headache pain-relief,[15],100%
same,Most bothersome symptom-free,[15],100%
same,Headache pain-free,"48 h, naltrexone/acetaminophen 3.25 mg/325 mg (N=3), naltrexone 3.25 mg (N=3)",100%
same,Headache pain-free,"from 90 minutes to 48 hours, naltrexone alone, all dosages (1.5, 2.25, 3.25, 5 mg)",100%
